From ChEMBL document CHEMBL4364276, “Discovery of 4-phenyl-2H-benzo[b][1,4]oxazin-3(4H)-one derivatives as potent and orally active PI3K/mTOR dual inhibitors” (Eur J Med Chem, 2019)

Assays:
[1] = target: Serine/threonine-protein kinase Nek5 (Homo sapiens) (UniProt Q6P3R8); test: Inhibition of human NEK5 at 100 nM using MBP as substrate by [gamma-33P]-ATP assay
[2] = target: Tyrosine-protein kinase Lyn (Homo sapiens) (UniProt P07948); test: Inhibition of human LYN-B at 100 nM using poly[Glu:Tyr] (4:1) as substrate by [gamma-33P]-ATP assay
Chain of Tyrosine-protein kinase Lyn (Homo sapiens) (P07948 2-512 limits assumed): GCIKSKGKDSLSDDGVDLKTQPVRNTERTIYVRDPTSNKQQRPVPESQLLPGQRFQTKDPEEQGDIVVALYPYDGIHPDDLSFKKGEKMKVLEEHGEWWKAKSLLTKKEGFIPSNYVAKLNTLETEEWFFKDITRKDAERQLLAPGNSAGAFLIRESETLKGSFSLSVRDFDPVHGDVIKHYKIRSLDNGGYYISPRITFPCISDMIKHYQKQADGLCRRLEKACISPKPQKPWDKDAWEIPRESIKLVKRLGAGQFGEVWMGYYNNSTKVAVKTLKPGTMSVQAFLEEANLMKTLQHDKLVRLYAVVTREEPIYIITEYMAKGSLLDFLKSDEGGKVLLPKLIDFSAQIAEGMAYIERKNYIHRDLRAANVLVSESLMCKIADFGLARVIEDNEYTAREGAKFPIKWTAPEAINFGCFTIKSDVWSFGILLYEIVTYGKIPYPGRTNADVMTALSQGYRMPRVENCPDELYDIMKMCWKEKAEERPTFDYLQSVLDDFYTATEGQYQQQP

[3] = target: Mitogen-activated protein kinase 9 (Homo sapiens) (UniProt P45984); test: Inhibition of human JNK2 at 100 nM using ATF2 as substrate by [gamma-33P]-ATP assay
Chain of Mitogen-activated protein kinase 9 (Homo sapiens) (P45984 whole entry, looked up): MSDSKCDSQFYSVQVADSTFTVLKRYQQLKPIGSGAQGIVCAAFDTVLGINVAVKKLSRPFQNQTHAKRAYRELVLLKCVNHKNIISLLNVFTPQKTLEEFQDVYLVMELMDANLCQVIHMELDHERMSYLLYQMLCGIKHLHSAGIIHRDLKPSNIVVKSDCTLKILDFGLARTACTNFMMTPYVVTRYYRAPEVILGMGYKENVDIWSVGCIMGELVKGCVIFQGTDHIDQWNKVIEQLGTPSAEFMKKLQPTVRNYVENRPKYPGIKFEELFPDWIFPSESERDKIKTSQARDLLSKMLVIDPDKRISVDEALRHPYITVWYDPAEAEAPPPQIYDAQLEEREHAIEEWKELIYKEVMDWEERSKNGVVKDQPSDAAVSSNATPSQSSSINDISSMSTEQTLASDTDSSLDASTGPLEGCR

[4] = target: G protein-coupled receptor kinase 5 (Homo sapiens) (UniProt P34947); test: Inhibition of human GRK5 at 100 nM using casein as substrate by [gamma-33P]-ATP assay
[5] = target: Phosphorylase b kinase gamma catalytic chain, skeletal muscle/heart isoform (Homo sapiens) (UniProt Q16816); test: Inhibition of human PHKgamma1 at 100 nM using MBP as substrate by [gamma-33P]-ATP assay
[6] = target: Tau-tubulin kinase 2 (Homo sapiens) (UniProt Q6IQ55); test: Inhibition of human TTBK2 at 100 nM using MBP as substrate by [gamma-33P]-ATP assay
[7] = target: Tyrosine-protein kinase ITK/TSK (Homo sapiens) (UniProt Q08881); test: Inhibition of human ITK at 100 nM using MBP as substrate by [gamma-33P]-ATP assay
[8] = target: Mitogen-activated protein kinase kinase kinase 21 (Homo sapiens) (UniProt Q5TCX8); test: Inhibition of human MLK4 at 100 nM using MEK1 as substrate by [gamma-33P]-ATP assay
[9] = target: Dual specificity mitogen-activated protein kinase kinase 3 (Homo sapiens) (UniProt P46734); test: Inhibition of human MEK3 at 100 nM using p38alpha as substrate by [gamma-33P]-ATP assay
[10] = target: Dual specificity testis-specific protein kinase 2 (Homo sapiens) (UniProt Q96S53); test: Inhibition of human TESK2 at 100 nM using cofilin as substrate by [gamma-33P]-ATP assay
Chain of Dual specificity testis-specific protein kinase 2 (Homo sapiens) (Q96S53 whole entry, looked up): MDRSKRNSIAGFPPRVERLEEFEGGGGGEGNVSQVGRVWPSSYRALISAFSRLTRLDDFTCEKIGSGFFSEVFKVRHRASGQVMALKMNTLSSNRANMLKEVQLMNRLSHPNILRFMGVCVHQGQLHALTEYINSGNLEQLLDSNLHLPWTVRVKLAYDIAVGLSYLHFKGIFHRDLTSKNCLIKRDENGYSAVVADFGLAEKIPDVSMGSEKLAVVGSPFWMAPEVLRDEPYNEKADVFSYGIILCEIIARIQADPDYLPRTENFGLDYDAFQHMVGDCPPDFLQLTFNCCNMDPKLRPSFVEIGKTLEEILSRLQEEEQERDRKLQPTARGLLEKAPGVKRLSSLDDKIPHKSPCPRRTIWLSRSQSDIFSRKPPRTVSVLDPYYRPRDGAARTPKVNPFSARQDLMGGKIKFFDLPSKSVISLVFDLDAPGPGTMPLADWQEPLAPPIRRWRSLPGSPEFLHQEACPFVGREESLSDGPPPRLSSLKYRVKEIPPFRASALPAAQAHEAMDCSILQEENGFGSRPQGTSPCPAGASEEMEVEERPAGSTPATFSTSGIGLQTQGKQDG

HeLa = test: Antitumor activity against human HeLa cells xenografted in ig dosed BALB/c nude mouse assessed as tumor growth inhibition administered for 30 days measured every 3 days during compound dosing relative to control; format: functional, organism-based
A549 = test: Antitumor activity against human A549 cells xenografted in BALB/c nude mouse assessed as tumor growth inhibition at 40 mg/kg, ig administered for 30 days measured every 3 days during compound dosing relative to control; format: functional; settings: A549, po, read-out: TGI
Homo sapiens = organism: Homo sapiens; test: Inhibition of human AMPK (A2/B2/G3) at 100 nM using HMRSAMSGLHLVKRR as substrate by [gamma-33P]-ATP assay
[11] = target: Dual specificity tyrosine-phosphorylation-regulated kinase 2 (Homo sapiens) (UniProt Q92630); test: Inhibition of human DYRK2 at 100 nM using RRRFRPASPLRGPPK as substrate by [gamma-33P]-ATP assay
[12] = target: CDK1/Cyclin E (Homo sapiens) (UniProt P06493+P24864); test: Inhibition of human CDK1/cyclinE at 100 nM using RB protein as substrate by [gamma-33P]-ATP assay; format: protein-complex assay
[13] = target: Serine/threonine-protein kinase A-Raf (Homo sapiens) (UniProt P10398); test: Inhibition of human ARAF at 100 nM using MEK1 as substrate by [gamma-33P]-ATP assay
[14] = target: Tyrosine-protein kinase receptor TYRO3 (Homo sapiens) (UniProt Q06418); test: Inhibition of human TYRO3 at 100 nM using poly[Glu:Tyr] (4:1) as substrate by [gamma-33P]-ATP assay
[15] = Tmax in Sprague-Dawley rat at 10 mg/kg, po measured upto 24 hrs by LC-MS/MS analysis; format: ADME, organism-based; settings: in vivo
[16] = target: CDK18/Cyclin Y (Homo sapiens) (UniProt Q07002+Q8ND76); test: Inhibition of human CDK18/cyclin-Y at 100 nM using RB protein as substrate by [gamma-33P]-ATP assay; format: protein-complex assay
[17] = target: Serine/threonine-protein kinase N3 (Homo sapiens) (UniProt Q6P5Z2); test: Inhibition of human PKN3 at 100 nM using KKLNRTLSVA as substrate by [gamma-33P]-ATP assay
[18] = target: Dual specificity tyrosine-phosphorylation-regulated kinase 3 (Homo sapiens) (UniProt O43781); test: Inhibition of human DYRK3 at 100 nM using RRRFRPASPLRGPPK as substrate by [gamma-33P]-ATP assay
[19] = target: Inactive tyrosine-protein kinase PEAK1 (Homo sapiens) (UniProt Q9H792); test: Inhibition of human PEAK1 at 100 nM using MBP as substrate by [gamma-33P]-ATP assay
Chain of Inactive tyrosine-protein kinase PEAK1 (Homo sapiens) (Q9H792 whole entry): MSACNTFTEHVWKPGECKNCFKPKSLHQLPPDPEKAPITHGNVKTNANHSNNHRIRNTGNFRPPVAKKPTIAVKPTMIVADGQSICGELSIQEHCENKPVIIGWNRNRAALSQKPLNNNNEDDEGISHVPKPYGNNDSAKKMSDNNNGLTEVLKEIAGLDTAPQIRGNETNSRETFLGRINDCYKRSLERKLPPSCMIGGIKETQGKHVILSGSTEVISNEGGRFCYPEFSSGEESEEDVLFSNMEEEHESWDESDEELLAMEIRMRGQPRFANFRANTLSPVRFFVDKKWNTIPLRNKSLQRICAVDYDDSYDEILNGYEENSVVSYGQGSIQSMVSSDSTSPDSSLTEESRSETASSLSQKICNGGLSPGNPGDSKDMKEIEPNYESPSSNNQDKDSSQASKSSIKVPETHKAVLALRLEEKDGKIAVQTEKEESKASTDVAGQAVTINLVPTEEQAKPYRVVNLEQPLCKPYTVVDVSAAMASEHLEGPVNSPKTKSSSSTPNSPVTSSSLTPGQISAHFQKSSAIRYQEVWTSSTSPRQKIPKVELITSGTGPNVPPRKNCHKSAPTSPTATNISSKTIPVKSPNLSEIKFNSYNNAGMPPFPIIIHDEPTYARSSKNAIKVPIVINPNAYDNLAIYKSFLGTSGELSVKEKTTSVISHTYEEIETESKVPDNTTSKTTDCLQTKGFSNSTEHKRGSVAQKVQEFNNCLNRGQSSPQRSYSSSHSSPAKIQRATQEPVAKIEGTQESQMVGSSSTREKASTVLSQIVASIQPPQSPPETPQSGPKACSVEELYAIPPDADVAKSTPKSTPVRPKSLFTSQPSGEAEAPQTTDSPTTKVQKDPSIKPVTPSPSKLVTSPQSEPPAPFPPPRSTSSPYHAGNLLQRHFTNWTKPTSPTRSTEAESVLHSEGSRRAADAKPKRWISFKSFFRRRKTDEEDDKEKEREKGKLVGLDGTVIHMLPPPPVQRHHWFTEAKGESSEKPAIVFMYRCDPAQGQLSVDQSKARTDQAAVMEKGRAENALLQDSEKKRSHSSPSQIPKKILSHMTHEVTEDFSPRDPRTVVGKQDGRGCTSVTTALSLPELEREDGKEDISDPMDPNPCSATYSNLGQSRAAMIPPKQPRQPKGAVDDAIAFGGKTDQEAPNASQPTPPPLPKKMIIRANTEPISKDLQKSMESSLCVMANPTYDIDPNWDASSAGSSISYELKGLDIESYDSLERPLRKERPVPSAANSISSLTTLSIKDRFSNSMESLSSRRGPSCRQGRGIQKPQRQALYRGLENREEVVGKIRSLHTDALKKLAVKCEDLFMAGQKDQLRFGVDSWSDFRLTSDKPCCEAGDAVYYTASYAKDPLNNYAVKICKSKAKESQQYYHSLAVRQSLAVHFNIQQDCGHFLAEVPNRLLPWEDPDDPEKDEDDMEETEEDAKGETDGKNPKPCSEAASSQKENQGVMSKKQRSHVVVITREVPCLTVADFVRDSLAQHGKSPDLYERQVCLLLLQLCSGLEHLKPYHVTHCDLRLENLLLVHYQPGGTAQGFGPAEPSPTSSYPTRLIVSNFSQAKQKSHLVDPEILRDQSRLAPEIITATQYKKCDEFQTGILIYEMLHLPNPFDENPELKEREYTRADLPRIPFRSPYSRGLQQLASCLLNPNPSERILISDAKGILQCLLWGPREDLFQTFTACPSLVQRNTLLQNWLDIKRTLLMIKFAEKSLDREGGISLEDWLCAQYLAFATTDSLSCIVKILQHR

[20] = target: Activin receptor type-1 (Homo sapiens) (UniProt Q04771); test: Inhibition of human ALK2 at 100 nM using casein as substrate by [gamma-33P]-ATP assay
[21] = target: Serine/threonine-protein kinase SBK1 (Homo sapiens) (UniProt Q52WX2); test: Inhibition of human SBK1 at 100 nM using LCGRTGRRNSI as substrate by [gamma-33P]-ATP assay
[22] = target: Bone morphogenetic protein receptor type-1A (Homo sapiens) (UniProt P36894); test: Inhibition of human ALK3 at 100 nM using casein as substrate by [gamma-33P]-ATP assay
[23] = target: Protein kinase C delta type (Homo sapiens) (UniProt Q05655); test: Inhibition of human PKCdelta at 100 nM using ERMRPRKRQGSVRRRV as substrate by [gamma-33P]-ATP assay
Chain of Protein kinase C delta type (Homo sapiens) (Q05655 whole entry, looked up): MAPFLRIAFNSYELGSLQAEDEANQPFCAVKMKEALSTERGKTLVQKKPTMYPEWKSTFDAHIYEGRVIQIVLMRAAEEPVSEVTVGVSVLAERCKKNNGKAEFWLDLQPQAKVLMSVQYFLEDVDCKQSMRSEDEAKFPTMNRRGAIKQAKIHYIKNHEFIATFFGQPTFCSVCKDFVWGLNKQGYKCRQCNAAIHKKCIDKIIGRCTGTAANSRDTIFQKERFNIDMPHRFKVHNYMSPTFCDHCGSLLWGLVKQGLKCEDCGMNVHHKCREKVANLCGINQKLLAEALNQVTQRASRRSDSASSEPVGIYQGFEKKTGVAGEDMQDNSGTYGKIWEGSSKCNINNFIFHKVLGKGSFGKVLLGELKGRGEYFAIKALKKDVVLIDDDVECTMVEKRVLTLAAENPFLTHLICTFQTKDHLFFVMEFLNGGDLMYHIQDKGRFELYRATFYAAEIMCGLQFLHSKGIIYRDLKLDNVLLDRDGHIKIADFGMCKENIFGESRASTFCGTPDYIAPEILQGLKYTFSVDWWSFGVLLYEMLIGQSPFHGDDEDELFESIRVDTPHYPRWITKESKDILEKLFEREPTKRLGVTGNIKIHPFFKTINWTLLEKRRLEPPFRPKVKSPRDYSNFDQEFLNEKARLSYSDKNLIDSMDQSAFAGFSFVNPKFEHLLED

[24] = target: Calcium/calmodulin-dependent protein kinase type 1G (Homo sapiens) (UniProt Q96NX5); test: Inhibition of human CAMK1G at 100 nM using KKALRRQETVDAL as substrate by [gamma-33P]-ATP assay
Chain of Calcium/calmodulin-dependent protein kinase type 1G (Homo sapiens) (Q96NX5 whole entry): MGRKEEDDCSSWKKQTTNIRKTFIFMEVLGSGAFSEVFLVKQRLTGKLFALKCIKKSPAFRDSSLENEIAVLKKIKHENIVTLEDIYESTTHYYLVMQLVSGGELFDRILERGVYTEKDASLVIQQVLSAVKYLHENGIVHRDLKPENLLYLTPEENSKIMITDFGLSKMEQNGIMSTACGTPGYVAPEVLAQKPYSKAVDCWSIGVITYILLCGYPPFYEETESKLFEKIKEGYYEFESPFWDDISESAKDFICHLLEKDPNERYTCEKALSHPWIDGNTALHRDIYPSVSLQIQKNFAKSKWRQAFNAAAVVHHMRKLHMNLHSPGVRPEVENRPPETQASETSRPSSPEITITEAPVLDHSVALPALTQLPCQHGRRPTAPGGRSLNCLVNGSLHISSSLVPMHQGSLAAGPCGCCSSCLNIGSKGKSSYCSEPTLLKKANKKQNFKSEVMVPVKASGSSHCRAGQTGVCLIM

[25] = Clearance in Sprague-Dawley rat at 1 mg/kg, iv measured upto 24 hrs by LC-MS/MS analysis; format: ADME, organism-based; settings: in vivo
PI3K p110 beta/p85 alpha = PI3K p110 beta/p85 alpha (Homo sapiens, UniProt P42338); test: Inhibition of recombinant human full length N-terminal GST-tagged PI3Kbeta (1 to 1070 residues)/PIK3R1 (1 to 724 residues) expressed in baculovirus expression system using PIP2 as substrate incubated for 2 hrs by ADP-Glo assay
[26] = target: Megakaryocyte-associated tyrosine-protein kinase (Homo sapiens) (UniProt P42679); test: Inhibition of human CTK at 100 nM using poly[Glu:Tyr] (4:1) as substrate by [gamma-33P]-ATP assay
[27] = target: Casein kinase I isoform epsilon (Homo sapiens) (UniProt P49674); test: Inhibition of human CK1E at 100 nM using KRRRAL[pS]VASLPGL as substrate by [gamma-33P]-ATP assay
Chain of Casein kinase I isoform epsilon (Homo sapiens) (P49674 whole entry, looked up, canonical isoform): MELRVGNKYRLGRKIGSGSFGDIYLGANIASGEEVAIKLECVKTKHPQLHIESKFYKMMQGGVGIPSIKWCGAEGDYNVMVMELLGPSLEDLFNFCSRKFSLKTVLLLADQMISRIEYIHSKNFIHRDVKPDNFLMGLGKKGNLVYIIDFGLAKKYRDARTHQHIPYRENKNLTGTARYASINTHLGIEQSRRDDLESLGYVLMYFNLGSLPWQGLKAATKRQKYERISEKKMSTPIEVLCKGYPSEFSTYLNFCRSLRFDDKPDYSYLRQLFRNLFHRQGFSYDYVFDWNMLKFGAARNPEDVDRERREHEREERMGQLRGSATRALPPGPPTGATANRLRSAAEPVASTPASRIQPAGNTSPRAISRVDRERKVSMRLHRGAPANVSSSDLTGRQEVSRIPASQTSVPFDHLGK

For `COc1ccc(N2C(=O)COc3ccc(-c4cnc(OC)c(NS(=O)(=O)c5ccc(F)cc5)c4)cc32)cc1`, the inhibition [1] was 1.15%, the inhibition [2] was 4.9% and the inhibition [3] was 22.4%. For the same molecule, the inhibition [4] was -0.54%, the inhibition [5] was 12.3% and the inhibition [6] was -3.23%. It also gave an inhibition [7] of -1.21%, an inhibition [8] of 5.78% and an inhibition [9] of 1.4%. The inhibition [10] was 0.47%, the TGI (HeLa) was “Dose-dependent effect” and the inhibition in vivo at 40 mg/kg (A549) was 70.2%. The inhibition (Homo sapiens) was 5.47%, the inhibition [11] was 3.05% and the inhibition [12] was 7.09%. For the same molecule, the inhibition [13] was 0.31%, the inhibition [14] was 3.03% and the Tmax [15] was 2.67 h. For the same molecule, the inhibition [16] was 9.02%, the inhibition [17] was -1.97% and the inhibition [18] was -8.14%. The inhibition [19] was 4.84%, the inhibition [20] was 12.7% and the inhibition [21] was 7.68%. It also gave an inhibition [22] of 3.37%, an inhibition [23] of 2.24% and an inhibition [24] of 14.6%. The clearance [25] was 8.56 mL/min/kg, the IC50 (PI3K p110 beta/p85 alpha) was 94.5 nM and the inhibition [26] was -7.54%. It also gave an inhibition [27] of 3.34%.
